Source: US5047397A, “Linear analogs of atrial natriuretic peptides” (California Biotechnology Inc., priority 1988, dated 1991)
Where a SMILES comes first, the peptide text is derived from it. [ ]: non-standard residue; d: D form. The star is where a group is joined. ξ: configuration not given here. ξNaproxenoyl = COc1ccc2cc(C(C)C(=O)*)ccc2c1; Acetyl(2-naphthyl) = O=C(Cc1ccc2ccccc2c1)*; NMeI = CC[C@H](C)[C@H](NC)C(=O)O; Met(O) = CS(=O)CC[C@H](N)C(=O)O; Cha = N[C@@H](CC1CCCCC1)C(=O)O; Nle = CCCC[C@H](N)C(=O)O; Aib = CC(C)(N)C(=O)O; Ava = NCCCCC(=O)O; X3 = CCC(C)CN*

Biological target: T1, specific ANP receptor sites on BASM or BAE cells (Bos taurus, UniProt P10730)
T1 construct: specific receptor sites on BASM or BAE cells; endogenous in cells; host or cells: cultured BASM and BAE cells
T1 sequence (P10730 42-537): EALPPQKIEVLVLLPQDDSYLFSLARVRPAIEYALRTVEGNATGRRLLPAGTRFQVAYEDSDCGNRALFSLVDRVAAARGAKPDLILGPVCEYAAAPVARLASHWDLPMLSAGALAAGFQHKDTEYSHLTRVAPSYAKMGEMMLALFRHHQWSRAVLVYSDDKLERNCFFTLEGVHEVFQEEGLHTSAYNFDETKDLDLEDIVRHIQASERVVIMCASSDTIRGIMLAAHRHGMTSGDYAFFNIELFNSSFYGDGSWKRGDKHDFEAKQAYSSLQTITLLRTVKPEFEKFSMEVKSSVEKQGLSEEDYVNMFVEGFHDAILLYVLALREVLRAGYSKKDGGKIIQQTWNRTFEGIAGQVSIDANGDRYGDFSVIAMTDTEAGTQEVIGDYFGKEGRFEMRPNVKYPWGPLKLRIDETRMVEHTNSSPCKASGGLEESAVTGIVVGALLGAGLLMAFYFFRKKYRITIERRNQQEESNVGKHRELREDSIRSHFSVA
Experiment: Competitive displacement receptor binding of (125I)-rANP(126-150) on cultured cells
Set-up: species or system bovine
Details: for Ki(app): concentration of unlabeled peptide displacing 50% of maximal binding of 0.5 nM (125I)-rANP(126-150), BASM or BAE cells
Source text: Analogous "competitive displacement" receptor binding assays are considered commonplace in the art for examining specific ligand-receptor interactions.
Assuming these ANP analogs act at one or more ANP receptor sites, then increased receptor affinity should reflect increased biological potency.

SMILES | Ki(app) | receptor binding / activity as judged by Ki, in words
CCC(C)CNC(=O)[C@H](CCCNC(=N)N)NC(=O)[C@H](CC(=O)O)NC(=O)[C@@H](NC(=O)[C@H](CCCNC(=N)N)NC(=O)CNC(=O)CNC(=O)Cc1ccc2ccccc2c1)[C@@H](C)CC (some centres unmarked) [AP511, (2-NA)GGRIDRNHCH2CH(CH3)CH3 CH3] ({Acetyl(2-naphthyl)}-GGRIDR-X3) | 84.7 nM | 
CC[C@H](C)[C@H](NC(=O)[C@H](CCCNC(=N)N)NC(=O)[C@H](CC(=O)O)NC(=O)[C@@H](NC(=O)[C@H](CC(C)C)NC(=O)CNC(=O)CNC(=O)Cc1ccc2ccccc2c1)[C@@H](C)CC)C(N)=O [AP512, (2-NA)--G--G--L--I--D--R--I--NH2] ({Acetyl(2-naphthyl)}-GGLIDRI-NH2) | > 160 nM | very low, if any, activity
CCCC[C@H](NC(=O)CNC(=O)CNC(=O)Cc1ccc2ccccc2c1)C(=O)N[C@H](C(=O)N[C@@H](CC(=O)O)C(=O)N[C@@H](CCCNC(=N)N)C(=O)N[C@H](C(N)=O)[C@@H](C)CC)[C@@H](C)CC [AP514, (2-NA)--G--G--Nle--I--D--R--I--NH2] ({Acetyl(2-naphthyl)}-GG[Nle]IDRI-NH2) | 267.0 nM | very low, if any, activity
CC[C@H](C)[C@H](NC(=O)[C@H](CCCNC(=N)N)NC(=O)[C@H](CC(=O)O)NC(=O)[C@H](CC[S+](C)[O-])NC(=O)[C@H](CCCNC(=N)N)NC(=O)CNC(=O)CNC(=O)Cc1ccc2ccccc2c1)C(N)=O (stereo partly drawn) [AP515, (2-NA)--G--G--R--MSO--D--R--I--NH2] ({Acetyl(2-naphthyl)}-GGR[Met(O)]DRI-NH2) | > 400 nM | very low, if any, activity
CC[C@H](C)[C@H](NC(=O)[C@H](CO)NC(=O)[C@H](CC(=O)O)NC(=O)[C@@H](NC(=O)[C@H](CCCNC(=N)N)NC(=O)CNC(=O)CNC(=O)Cc1ccc2ccccc2c1)[C@@H](C)CC)C(N)=O [AP516, (2-NA)--G--G--R--I--D--S--I--NH2] ({Acetyl(2-naphthyl)}-GGRIDSI-NH2) | 399 nM | very low, if any, activity
CC[C@H](C)[C@H](NC(=O)[C@H](CCCNC(=N)N)NC(=O)[C@H](CCC(=O)O)NC(=O)[C@@H](NC(=O)[C@H](CCCNC(=N)N)NC(=O)CNC(=O)CNC(=O)Cc1ccc2ccccc2c1)[C@@H](C)CC)C(N)=O [AP518, (2-NA)--G--G--R--I--E--R--I--NH2] ({Acetyl(2-naphthyl)}-GGRIERI-NH2) | 38 nM | 
CC[C@H](C)[C@H](NC(=O)[C@H](CCCNC(=N)N)NC(=O)CNC(=O)CNC(=O)Cc1ccc2ccccc2c1)C(=O)N[C@@H](CC(=O)O)C(=O)N[C@@H](CCCNC(=N)N)C(=O)N1CCC[C@H]1C(N)=O [AP519, (2-NA)--G--G--R--I--D--R--P--NH2] ({Acetyl(2-naphthyl)}-GGRIDRP-NH2) | > 400 nM | very low, if any, activity
CC[C@H](C)[C@H](NC(=O)[C@H](CCCNC(=N)N)NC(=O)[C@H](CC(=O)O)NC(=O)[C@H](Cc1ccccc1)NC(=O)[C@H](CCCNC(=N)N)NC(=O)CNC(=O)CNC(=O)Cc1ccc2ccccc2c1)C(N)=O [AP521, (2-NA)--G--G--R--F--D--R--I--NH2] ({Acetyl(2-naphthyl)}-GGRFDRI-NH2) | 400 nM | very low, if any, activity
CC[C@H](C)[C@H](NC(=O)[C@H](CCCNC(=N)N)NC(=O)[C@H](CC(=O)O)NC(=O)[C@@H](NC(=O)[C@H](CCC(N)=O)NC(=O)CNC(=O)CNC(=O)Cc1ccc2ccccc2c1)[C@@H](C)CC)C(N)=O [AP522, (2-NA)--G--G--Q--I--D--R--I--NH2] ({Acetyl(2-naphthyl)}-GGQIDRI-NH2) | 23.0 nM | 
CC[C@H](C)[C@H](NC(=O)[C@H](CCCNC(=N)N)NC(=O)[C@H](CC(=O)O)NC(=O)[C@@H](NC(=O)[C@H](CCCCN)NC(=O)CNC(=O)CNC(=O)Cc1ccc2ccccc2c1)[C@@H](C)CC)C(N)=O [AP523, (2-NA)--G--G--K--I--D--R--I--NH2] ({Acetyl(2-naphthyl)}-GGKIDRI-NH2) | 36.7 nM | 
CCNC(=O)CNC(=O)[C@@H](NC(=O)[C@H](CCCNC(=N)N)NC(=O)[C@H](CC(=O)O)NC(=O)[C@@H](NC(=O)[C@H](CCCNC(=N)N)NC(=O)CNC(=O)CNC(=O)Cc1ccc2ccccc2c1)[C@@H](C)CC)[C@@H](C)CC [AP524, (2-NA)--G--G--R--I--D--R--I--G--NH-(ethyl)] ({Acetyl(2-naphthyl)}-GGRIDRIG-NHEt) | 2.76 nM | 
CC[C@H](C)[C@H](NC(=O)[C@H](CCCNC(=N)N)NC(=O)[C@H](CC(=O)O)NC(=O)[C@@H](NC(=O)[C@H](CCCNC(=N)N)NC(=O)CNC(=O)CNC(=O)Cc1ccc2ccccc2c1)[C@@H](C)CC)C(=O)NCC(=O)NC(C)(C)C(N)=O [AP525, (2-NA)--G--G--R--I--D--R--I--G--(Aib)--NH2] ({Acetyl(2-naphthyl)}-GGRIDRIG[Aib]-NH2) | 22.75 nM | 
CC[C@H](C)[C@H](NC(=O)[C@H](CCCNC(=N)N)NC(=O)[C@H](CC(=O)O)NC(=O)[C@@H](NC(=O)[C@H](CCCNC(=N)N)NC(=O)CNC(=O)CNC(=O)Cc1ccc2ccccc2c1)[C@@H](C)CC)C(=O)NCCCCC(N)=O [AP526, (2-NA)--G--G--R--I--D--R--I--NH--(CH2)4 --CONH2] ({Acetyl(2-naphthyl)}-GGRIDRI[Ava]-NH2) | 50.5 nM | 
CC[C@H](C)[C@H](NC(=O)[C@H](CCCNC(=N)N)NC(=O)[C@H](CC(=O)O)NC(=O)[C@H](CC1CCCCC1)NC(=O)[C@H](CCCNC(=N)N)NC(=O)CNC(=O)CNC(=O)Cc1ccc2ccccc2c1)C(N)=O [AP527, (2-NA)--G--G--R--Cha--D--R--I--NH2] ({Acetyl(2-naphthyl)}-GGR[Cha]DRI-NH2) | 22.5 nM | 
CC[C@H](C)[C@H](NC(=O)[C@H](CCCNC(=N)N)NC(=O)[C@H](CC(=O)O)NC(=O)[C@@H](NC(=O)[C@H](CCCNC(=N)N)NC(=O)CNC(=O)CNC(=O)C(C)c1ccc2cc(OC)ccc2c1)[C@@H](C)CC)C(=O)NCC(=O)N[C@@H](C)C(N)=O (stereo partly drawn) [AP528, 2(2'-(6'-MeONAP))--G--G--R--I--D--R--I--G--A--NH2] (ξNaproxenoyl-GGRIDRIGA-NH2) | 22.5 nM | 
CCNC(=O)CNC(=O)[C@H]([C@@H](C)CC)N(C)C(=O)[C@H](CCCNC(=N)N)NC(=O)[C@H](CC(=O)O)NC(=O)[C@@H](NC(=O)[C@H](CCCNC(=N)N)NC(=O)CNC(=O)CNC(=O)Cc1ccc2ccccc2c1)[C@@H](C)CC [AP529] ({Acetyl(2-naphthyl)}-GGRIDR[NMeI]G-NHEt) | 87.3 nM | 
CCNC(=O)CNC(=O)[C@@H](NC(=O)[C@H](CCCNC(=N)N)NC(=O)[C@H](CC(=O)O)NC(=O)[C@@H](NC(=O)[C@H](CCCNC(=N)N)NC(=O)CCCCNC(=O)Cc1ccc2ccccc2c1)[C@@H](C)CC)[C@@H](C)CC [AP530, (2-NA)--NH(CH2)4 CO--R--I--D--R--I--G--NH--(ethyl)] ({Acetyl(2-naphthyl)-Ava}-RIDRIG-NHEt) | 50.5 nM | 
